Earlier results as cited in patent US10029020B2, “Fullerene compositions” (UNIVERSITEIT GENT, priority 2015, dated 2018).

Columns and labels:
rats = conditions: regular administration; Moussa et al., Biomaterials 2012

Q: With c12c3c4c5c1c1c6c7c2c2c8c3c3c9c4c4c%10c5c5c1c1c6c6c%11c7c2c2c7c8c3c3c8c9c4c4c9c%10c5c5c1c1c6c6c%11c2c2c7c3c3c8c4c4c9c5c1c1c6c2c3c41 [Polymer C60, buckminsterfullerene (C60)] as the compound, how does the water solubility read?
A: 10^−8 ng/L

Q: And the lifespan of rats (rats)?
A: doubled
